Where a name gives a salt, the structure may show the parent alone. Read-outs that look alike come from different tables or passages of the source.

Test in all cases: AK assay 384-well format, Prestwick library screening
The test system of assay [1] is S. aureus strain USA300-0114. Type of assay: cell-based, Staphylococcus aureus. The settings on record: 50 μM final drug concentration; for fold induction at 50 µM: Staphylococcus aureus, USA300, 3 h.
For another assay, the system named is E. cloacae. The assay is classed as cell-based, Enterobacter cloacae. The settings on record: 50 μM final drug concentration; for fold induction at 50 µM: Enterobacter cloacae, 3 h.
Assay [2] concerns A. baumannii strain 98-37-09. Type of assay: cell-based, Acinetobacter baumannii. The settings on record: 50 μM final drug concentration; for fold induction at 50 µM: Acinetobacter baumannii, 983709, 3 h.
The subject of the next assay is E. coli. The assay is classed as cell-based, Escherichia coli. Conditions: 50 μM final drug concentration; for fold induction at 50 µM: Escherichia coli, 3 h.
A further assay has as its system E. faecium. The assay is classed as cell-based, Enterococcus faecium. Conditions: 50 μM final drug concentration; for fold induction at 50 µM: Enterococcus faecium, 3 h.
In the next assay the test system is P. aeruginosa. Type of assay: cell-based, Pseudomonas aeruginosa. The settings on record: 50 μM final drug concentration; for fold induction at 50 µM: Pseudomonas aeruginosa, 3 h.
Another assay deals with K. pneumoniae. The assay is classed as cell-based, Klebsiella pneumoniae. Conditions: 50 μM final drug concentration; for fold induction at 50 µM: Klebsiella pneumoniae, 3 h.
Where [3] appears, read: planktonic, cutoff for positive-scoring molecules 3-fold increase, read-out: AK-based Prestwick Library Screening Results, S. aureus (fold increase in extracellular AK activity).
Setting [4] is: planktonic, cutoff for positive-scoring molecules 3-fold increase, read-out: AK-based Prestwick Library Screening Results, E. cloacae (fold increase in extracellular AK activity).
[5] abbreviates: planktonic, cutoff for positive-scoring molecules 3-fold increase, read-out: AK-based Prestwick Library Screening Results, A. baumannii (fold increase in extracellular AK activity).
[6] abbreviates: planktonic, cutoff for positive-scoring molecules 3-fold increase, read-out: AK-based Prestwick Library Screening Results, E. coli (fold increase in extracellular AK activity).
The mark [7] stands for this setting: planktonic, cutoff for positive-scoring molecules 3-fold increase, read-out: AK-based Prestwick Library Screening Results, E. faecium (fold increase in extracellular AK activity).
Setting [8] is: planktonic, cutoff for positive-scoring molecules 3-fold increase, read-out: AK-based Prestwick Library Screening Results, P. aeruginosa (fold increase in extracellular AK activity).
The mark [9] stands for this setting: planktonic, cutoff for positive-scoring molecules 3-fold increase, read-out: AK-based Prestwick Library Screening Results, K. pneumoniae (fold increase in extracellular AK activity).
[10] abbreviates: planktonic, cutoff for positive 3-fold increase.
Setting [11] is: planktonic, cutoff for positive 3-fold increase, read-out: AK-based Prestwick Library Screening Results, S. aureus (fold increase in extracellular AK activity).
Setting [12] is: planktonic, cutoff for positive 3-fold increase, read-out: AK-based Prestwick Library Screening Results, E. cloacae (fold increase in extracellular AK activity).
Where [13] appears, read: planktonic, cutoff for positive 3-fold increase, read-out: AK-based Prestwick Library Screening Results, A. baumannii (fold increase in extracellular AK activity).
Where [14] appears, read: planktonic, cutoff for positive 3-fold increase, read-out: AK-based Prestwick Library Screening Results, E. coli (fold increase in extracellular AK activity).
[15] abbreviates: planktonic, cutoff for positive 3-fold increase, read-out: AK-based Prestwick Library Screening Results, E. faecium (fold increase in extracellular AK activity).
Where [16] appears, read: planktonic, cutoff for positive 3-fold increase, read-out: AK-based Prestwick Library Screening Results, P. aeruginosa (fold increase in extracellular AK activity).
Setting [17] is: planktonic, cutoff for positive 3-fold increase, read-out: AK-based Prestwick Library Screening Results, K. pneumoniae (fold increase in extracellular AK activity).

Regarding `CC1(C)S[C@@H]2[C@H](NC(=O)[C@H](NC(=O)N3CCNC3=O)c3ccccc3)C(=O)N2[C@H]1C(=O)O` [Azlocillin sodium salt], the fold induction at 50 µM in assay [1] (setting [3]) turned out to be 0.4; in the assay on E. cloacae (setting [4]) it was 1; in assay [2] (setting [5]), 2.1; with E. coli (setting [6]), 12.3; in the assay on E. faecium (setting [7]), 0.9; in the assay on P. aeruginosa (setting [8]) it was 9.7. In addition, the fold induction at 50 µM in the assay on K. pneumoniae (setting [9]) was found to be 0.7.

Consider `O=C(O)[C@H](O)[C@@H](O)[C@H](O[C@@H]1O[C@H](CO)[C@H](O)[C@H](O)[C@H]1O)[C@H](O)CO` [Lactobionic acid], for which, in assay [1] (setting [10]), the “AK-based Prestwick Library Screening Results, S. aureus (fold increase in extracellular AK activity)” value stood at 0.8. The “AK-based Prestwick Library Screening Results, E. cloacae (fold increase in extracellular AK activity)” value in the assay with E. cloacae (setting [10]) stood at 1.2. The “AK-based Prestwick Library Screening Results, A. baumannii (fold increase in extracellular AK activity)” value in assay [2] (setting [10]) was 1.1. Besides, the “AK-based Prestwick Library Screening Results, E. coli (fold increase in extracellular AK activity)” value in the assay with E. coli (setting [10]) was determined as 1.0. Moreover, the “AK-based Prestwick Library Screening Results, E. faecium (fold increase in extracellular AK activity)” value with E. faecium (setting [10]) worked out at 1.0. Further, the “AK-based Prestwick Library Screening Results, P. aeruginosa (fold increase in extracellular AK activity)” value with P. aeruginosa (setting [10]) is 1.0. Also, the “AK-based Prestwick Library Screening Results, K. pneumoniae (fold increase in extracellular AK activity)” value with K. pneumoniae (setting [10]) stood at 0.9.

Consider `CN(C)[C@@H]1C(O)=C(C(=O)NCNCCCC[C@H](N)C(=O)O)C(=O)[C@@]2(O)C(O)=C3C(=O)c4c(O)cccc4[C@@](C)(O)[C@H]3C[C@@H]12` [Lymecycline], for which the fold induction at 50 µM in assay [1] (planktonic S. aureus, […], read-out: AK-based Prestwick library screening result, S. aureus (fold increase in extracellular AK activity)) was 0.7; in the assay on E. cloacae (planktonic E. cloacae, […], read-out: AK-based Prestwick library screening result, E. cloacae (fold increase in extracellular AK activity)), 1.2; in assay [2] (planktonic A. baumannii, […], read-out: AK-based Prestwick library screening result, A. baumannii (fold increase in extracellular AK activity)) it was 0.8; in the assay with E. coli (planktonic E. coli, […], read-out: AK-based Prestwick library screening result, E. coli (fold increase in extracellular AK activity)), 0.8; in the assay on E. faecium (planktonic E. faecium, […], read-out: AK-based Prestwick library screening result, E. faecium (fold increase in extracellular AK activity)) it was 1; in the assay with P. aeruginosa (planktonic P. aeruginosa, […], read-out: AK-based Prestwick library screening result, P. aeruginosa (fold increase in extracellular AK activity)), 0.7. Moreover, the fold induction at 50 µM with K. pneumoniae (planktonic K. pneumoniae, […], read-out: AK-based Prestwick library screening result, K. pneumoniae (fold increase in extracellular AK activity)) amounted to 0.7.

With `COc1cc(C(=O)OCCCN2CCCN(CCCOC(=O)c3cc(OC)c(OC)c(OC)c3)CC2)cc(OC)c1OC` [Dilazep dihydrochloride], the fold induction at 50 µM in assay [1] (planktonic S. aureus, 384-well, cutoff for positive-scoring molecules 3-fold increase, read-out: AK-based Prestwick Library Screening Results: S. aureus (increase in extracellular AK activity)) worked out at 1.2; in the assay with E. cloacae (planktonic E. cloacae, 384-well, cutoff for positive-scoring molecules 3-fold increase, read-out: AK-based Prestwick Library Screening Results: E. cloacae (increase in extracellular AK activity)), 1.1; in assay [2] (planktonic A. baumannii, 384-well, cutoff for positive-scoring molecules 3-fold increase, read-out: AK-based Prestwick Library Screening Results: A. baumannii (increase in extracellular AK activity)), 1.4; with E. coli (planktonic E. coli, 384-well, cutoff for positive-scoring molecules 3-fold increase, read-out: AK-based Prestwick Library Screening Results: E. coli (increase in extracellular AK activity)), 1.5; in the assay on E. faecium (planktonic E. faecium, 384-well, cutoff for positive-scoring molecules 3-fold increase, read-out: AK-based Prestwick Library Screening Results: E. faecium (increase in extracellular AK activity)) it was 1.1; in the assay with P. aeruginosa (planktonic P. aeruginosa, 384-well, cutoff for positive-scoring molecules 3-fold increase, read-out: AK-based Prestwick Library Screening Results: P. aeruginosa (increase in extracellular AK activity)) it was 1.3. The fold induction at 50 µM in the assay with K. pneumoniae (planktonic K. pneumoniae, 384-well, cutoff for positive-scoring molecules 3-fold increase, read-out: AK-based Prestwick Library Screening Results: K. pneumoniae (increase in extracellular AK activity)) amounted to 1.4.

In the case of `COc1c(C)c2c(c(O)c1C/C=C(\C)CCC(=O)O)C(=O)OC2` [Mycophenolic acid], the fold induction at 50 µM in assay [1] (setting [11]) was 1.1; in the assay with E. cloacae (setting [12]) it was 1.3; in assay [2] (setting [13]) it was 1.2; in the assay with E. coli (setting [14]), 1.2; in the assay with E. faecium (setting [15]), 1.1; in the assay on P. aeruginosa (setting [16]), 1.2. The fold induction at 50 µM with K. pneumoniae (setting [17]) stood at 1.5.

Consider `CN1CCc2c(c3ccccc3n2Cc2ccccc2)C1.O=S(=O)(O)c1cccc2c(S(=O)(=O)O)cccc12` [Mebhydroline 1,5-naphtalenedisulfonate], for which, in assay [1] (setting [10]), the “AK-based Prestwick Library Screening Results, S. aureus (fold increase in extracellular AK activity)” value is given as 0.9. The “AK-based Prestwick Library Screening Results, E. cloacae (fold increase in extracellular AK activity)” value with E. cloacae (setting [10]) is 1.5. Besides, in assay [2] (setting [10]), the “AK-based Prestwick Library Screening Results, A. baumannii (fold increase in extracellular AK activity)” value was 0.9. Also, the “AK-based Prestwick Library Screening Results, E. coli (fold increase in extracellular AK activity)” value in the assay on E. coli (setting [10]) came to 1.1. The “AK-based Prestwick Library Screening Results, E. faecium (fold increase in extracellular AK activity)” value with E. faecium (setting [10]) stood at 1.0. For the same compound, in the assay with P. aeruginosa (setting [10]), the “AK-based Prestwick Library Screening Results, P. aeruginosa (fold increase in extracellular AK activity)” value was 1.1. In addition, the “AK-based Prestwick Library Screening Results, K. pneumoniae (fold increase in extracellular AK activity)” value with K. pneumoniae (setting [10]) is 0.8.

As for `NCc1ccccc1CC(=O)N[C@@H]1C(=O)N2C(C(=O)O)=C(CSc3nnnn3CC(=O)O)CS[C@H]12` [Ceforanide], the fold induction at 50 µM in assay [1] (setting [11]) worked out at 1.8; in the assay on E. cloacae (setting [12]), 1.9; in assay [2] (setting [13]), 1.8; with E. coli (setting [14]) it was 12.2; in the assay with E. faecium (setting [15]), 1; in the assay with P. aeruginosa (setting [16]), 1.2. Moreover, in the assay on K. pneumoniae (setting [17]), the fold induction at 50 µM is 3.1.

`CS(=O)(=O)c1ccc([C@@H](O)[C@@H](CO)NC(=O)C(Cl)Cl)cc1` [Thiamphenicol]: the fold induction at 50 µM in assay [1] (384-well format, cutoff for positive-scoring molecules 3-fold increase, read-out: AK-based Prestwick Library Screening Results, S. aureus (increase in extracellular AK activity)) was determined as 8.7; in the assay with E. cloacae (384-well format, cutoff for positive-scoring molecules 3-fold increase, read-out: AK-based Prestwick Library Screening Results, E. cloacae (increase in extracellular AK activity)), 1.4; in assay [2] (384-well format, cutoff for positive-scoring molecules 3-fold increase, read-out: AK-based Prestwick Library Screening Results, A. baumannii (increase in extracellular AK activity)) it was 0.9; in the assay with E. coli (384-well format, cutoff for positive-scoring molecules 3-fold increase, read-out: AK-based Prestwick Library Screening Results, E. coli (increase in extracellular AK activity)), 0.9; in the assay with E. faecium (384-well format, cutoff for positive-scoring molecules 3-fold increase, read-out: AK-based Prestwick Library Screening Results, E. faecium (increase in extracellular AK activity)), 0.9; in the assay with P. aeruginosa (384-well format, cutoff for positive-scoring molecules 3-fold increase, read-out: AK-based Prestwick Library Screening Results, P. aeruginosa (increase in extracellular AK activity)), 0.8. For the same compound, the fold induction at 50 µM in the assay with K. pneumoniae (384-well format, cutoff for positive-scoring molecules 3-fold increase, read-out: AK-based Prestwick Library Screening Results, K. pneumoniae (increase in extracellular AK activity)) stood at 0.4.

As for `C[N+]1(C)CCC(OC(=O)C(O)(c2ccccc2)C2CCCC2)C1` (stereo not drawn) [Glycopyrrolate], the fold induction at 50 µM in assay [1] (setting [3]) was 0.7; in the assay on E. cloacae (setting [4]), 1.1; in assay [2] (setting [5]) it was 0.8; in the assay with E. coli (setting [6]) it was 0.9; in the assay with E. faecium (setting [7]), 0.9; with P. aeruginosa (setting [8]), 0.9. Also, in the assay on K. pneumoniae (setting [9]), the fold induction at 50 µM is 0.8.

The values above are taken from patent US10004701B2, “Methods and compositions for treating infection” (UNIVERSITY OF ROCHESTER, priority 2012, dated 2018).
